Experimental data as given in patent US7507792B2, “MDA-7 proteins and methods of use thereof” (The Trustees of Columbia University In The City of New York, priority 1993, dated 2009).
“Also recorded” adds a separate entry of the source. Starred links: 1 amine or outer side, 2 acyl side, 3 side chain; linkers in the order of their positions; H or OH if unused. Positions of bridges follow the written chain, without caps; N, C: chain ends. Non-standard residues stand in square brackets, D forms with d. Residues, ends and D or L forms follow the SMILES beside them. Chains are numbered I, II in the order given. Actinocin(9to1) = Cc1c2oc3c(C)ccc(C(=O)[*:1])c3nc-2c(C(=O)[*:2])c(N)c1=O; NMeV = CN[C@H](C(=O)O)C(C)C; Sar = CNCC(=O)O

How the values were obtained:
mda-4 = mda-4 expression (Northern blotting); type: cell-based, human; conditions: H0-1
Description: (§1) The mass excision of the library was performed using ExAssist helper phage as described above. The SOLR strain of Escherichia coli and cDNA phagemids were mixed at 37° C. for 15 min and plated onto LB plates containing ampicillin and IPTG/X-gal. White colonies were chosen at random, isolated and grown in LB medium. Plasmid minireps and restriction enzyme digestions were performed to confirm the presence of inserts. The inserts were isolated and used as robes for Northern blotting analysis (5,25). […] Radiolabeled probes were generated by random oligonucleotide priming (25). Prehybridization, hybridization, posthybridization washes, and autoradiography were performed as described (5,18,25).

mda-5 = mda-5 expression (Northern blotting); type: cell-based, human; conditions: H0-1
Description: as §1

mda-6 = mda-6 expression (Northern blotting); type: cell-based, human; conditions: H0-1
Description: as §1
Total cytoplasmic RNA was isolated and Northern blotting hybridization was performed as described (Reddy et al., 1991; Su et al., 1991; Jiang et al., 1992). Ten μg of RNA was denatured with glyoxal/DMSO, electrophoresed on 1.0% agarose gels, transferred to nylon membranes and hybridized to a ^32P-labeled p53 probe (Baker et al., 1990). The nylon membrane was stripped and hybridized to a ^32P-labeled mda-6 probe (Jiang and Fisher, 1993) and then after a second stripping the membrane was hybridized to a ^32P-labeled rat GAPDH probe (Fort et al., 1985), as described previously (Reddy et al., 1991; Su et al., 1991; Jiang et al., 1992). Following hybridization, the filters were washed and exposed for autoradiography (Reddy et al., 1991; Su et al., 1991; Jiang et al., 1992). mda-6 and GAPDH gene expression were also determined by reverse transcription-polymerase chain reaction (RT-PCR) as described (Adollahi et al., 1991; Lin et al., 1994; Jiang et al., 1994b). Total cytoplasmic RNA was treated with 0.5 units DNase (Boehringer-Mannheim Biochemicals)/μg RNA in 15% glycerol, 10 mM Tris, pH 7.5, 2.5 mM MgCl2, 0.1 mM EDTA, 80 mM KCl, 1 mM CaCl2 and 1 unit/ml RNasin (Promega) at 30° C. for 10 min. RNA was extracted with phenol-chloroform, precipitated with sodium acetate/ethanol and RNA pellets were resuspended in diethylpyrocarbonate-treated H2O. One μg of total RNA was reverse transcribed with 200 units of murine leukemia virus reverse transcriptase (Bethesda Research Laboratories) in 20 μl containing 1 mM deoxyribonucleotide triphosphates, 4 mM MgCl2, 10 mM Tris, pH 8.3, 50 mM KCl, 0.001% gelatin and 0.2 μg oligo-dT primer. Samples were adjusted to 100 μl with buffer containing 0.2 mM deoxyribonucleotide triphosphates, 2 mM MgCl2, 10 mM Tris, pH 8.3, 50 mM KCl and 0.001% gelatin. Fifty pmol of each primer, 1.5 units Taq DNA polymerase (Perkin-Elmer Cetus) were added and samples were covered with mineral oil, heated at 95° C. for 5 min and subjected to 25 cycles of PCR in a Perkin-Elmer Thermal Cycler using 1 min denaturation at 94° C., 2 min annealing at 55° C. and 3 min polymerization at 72° C. After extraction with chloroform, 20 μl of products were electrophoresed, blotted onto nylon filters and hybridized with an mda-6 or GAPDH specific probe. The mda-6 primers were 5′ to 3′ […] (SEQ ID NO:26) and […] (SEQ ID NO:27)(corresponding to nt 1527 to 1546) (GenBank accession number U09579); and the GAPDH primers were 5′ to 3′ […] (SEQ ID NO:28)and […] (SEQ ID NO:29)(corresponding to nt 1070 to 1053) (Tokunaga et al., 1987).

mda-8 = mda-8 expression (Northern blotting); type: cell-based, human; conditions: H0-1
Description: as §1

mda-7 = mda-7 expression (Northern blotting, RT-PCR); type: cell-based, human; conditions: for mda-7 expression: H0-1
Description: as §1

mda-9 = mda-9 expression (Northern blotting); type: cell-based, human; conditions: H0-1
Description: as §1

[1] = tested on: H0-1 human melanoma cell line; test: 96-h growth suppression (cell number by Coulter Counter); type: cell-based; conditions: H0-1 cells, degree of initial 96 hr growth suppression versus untreated control
Description: FIG. 1A-B Effect of continuous exposure to various growth and differentiation modulating agents on the 96-h growth of the human melanoma cell line, H0-1. Cells were seeded at 5×10^4/35-mm tissue culture plate and 24 h later the medium was changed with the indicated compounds. Cell numbers were determined by Coulter Counter after 96-h growth. Further details can be found in Materials and Methods.
The H0-1 cell line is a melanotic melanoma derived from a person and was used between passage 100 and 125 (6,8,13). H0-1 cells were kindly provided by Dr. Beppino C. Giovanella, Stehlin Foundation for Cancer Research, Houston, Tex. Cultures were grown at 37° C. in a 95% air 5% CO2-humidified incubator in Dulbecco's modified Eagle's medium (DMEM) supplemented with 10% fetal bovine serum (DMEM-10) (Hyclone, Logan, Utah). H0-1 cells were maintained in the logarithmic stage of growth by subculturing (1:5 or 1:10) prior to confluency approximately every 4 to 5 days. […] Total cell numbers were determined after days 4, 7, 14, and 21, using a ZM Coulter Counter, and viable cell numbers were determined by trypan blue dye exclusion (6). […] Increases in cell number (two or more population doublings) after removal of the inducing agent(s) was considered reversible growth suppression. […] Conditioned medium was collected from treated cultures, contaminating cells were removed by centrifugation at 1000 rpm/10 min., and conditioned medium was stored at 4° C. until assayed for gene modulatory activity. Control conditioned medium was obtained as experimental conditioned medium from cells receiving only a medium change 24 hours after plating in the absence of test compound(s) and growth for 72 hours in DMEM-10.

H0-1 cells = test: Northern blotting analysis of steady-state mRNA levels; type: cell-based, human; conditions: FIG. 1 concentrations
Description: Steady-state levels of specific mRNAs were determined by Northern blotting analysis of total RNA probed with appropriate ^32P-labeled gene probes as described previously (14-16). RNAs were analyzed from cells treated with inducer for 24 hours, treated for 24 hours with inducer followed by growth for 72 hours in the absence of inducer, or treated continuously for 96 hours with the inducer. The concentration of inducing compounds used were the same as those used for growth studies. The effect of conditioned medium on gene expression changes was determined by treating H0-1 cells for 24 hours with a 1:2 dilution of conditioned medium (equal volumes of conditioned medium and DMEM supplemented with 10% fetal bovine serum (DMEM-10) or for 96 hours with a 1:4 dilution of conditioned medium (1 vol. of conditioned medium to 3 vol. of DMEM-10). The probes used in the present study were specific for β-actin (17), γ-actin (17), c-jun (18), c-myc (19), fibronectin (20), gro/MGSA (21), HLA Class I antigen (22), HLA Class II antigen (HLA-DRβ) (22), α5 integrin (23), β1 integrin (24), ISG-15 (25), ISG-54 (25), jun-B (26), and tenascin (27). Northern blots were also probed with a ^32P-labeled GAPDH gene (15) to verify similar mRNA expression under the various experimental conditions. Following hybridization, the filters were washed and exposed for autoradiography.

[2] = 24 hours, doses of FIG. 19, phenyl butyrate 24 hours, 4 days or 7 days
[3] = 24 hours, doses of FIG. 19, phenyl butyrate 24 hours, 4 or 7 days
[4] = 96 hours, doses of FIG. 15 legend

Row | Compound | mda-4 expression (mda-4; [2]) | mda-5 expression (mda-5; [2]) | mda-6 expression (mda-6; [3]) | mda-8 expression (mda-8; [2]) | mda-7 expression (mda-7; [2]) | mda-9 expression (mda-9; [2]) | other results
1 | COc1cccc2c1C(=O)c1c(O)c3c(c(O)c1C2=O)C[C@@](O)(C(=O)CO)C[C@@H]3O[C@H]1C[C@H](N)[C@H](O)[C@H](C)O1 [adriamycin, Adriamycin] | No or only a small change in expression | No change in expression | increased expression | Increased expression | increased mda-7 expression |  | 
2 | COc1c(C)c2c(c(O)c1C/C=C(\C)CCC(=O)O)C(=O)OC2 [MPA, mycophenolic acid] |  |  |  |  |  |  | mda-9 expression (mda-9; [4]): No change in mda-9 expression; mda-4 expression (mda-4; [4]): No or only a small change in expression; Growth Suppression (reversible) ([1]; Table 1): 3+ (3+ = ~50 to 60% reduction in growth in comparison with untreated control cultures); Growth Suppression (reversible) ([1]; Table 2): − (− = no significant change in growth (<10% reduction in growth in comparison with untreated control cultures)); mda-5 expression (mda-5; [4]): No change in expression; mda-6 expression (mda-6; [4]): no significant or reduced alteration in expression; mda-8 expression (mda-8; [4]): No change in expression; mda-7 expression (mda-7; [4]): Increased expression; also recorded: induced; HLA Class I antigen gene expression (H0-1 cells; 96 h): did not significantly alter; fibronectin expression (H0-1 cells; 96 h): most effective single agents; induction of gro/MGSA gene expression (H0-1 cells; 96 h): did not; tenascin expression (H0-1 cells; 96 h): enhanced tenascin expression; c-jun and jun-B expression (H0-1 cells; 96 hours): increase; c-myc expression (H0-1 cells; 96 hours): downregulated
3 | phenylacetate |  |  |  |  |  |  | mda-7 expression (RT-PCR) (mda-7; LAN human neuroblastoma cells, 5 days): induced
4 | Cc1c2oc3c(C)ccc(C(=O)N[C@@H]4C(=O)N[C@H](C(C)C)C(=O)N5CCC[C@H]5C(=O)N(C)CC(=O)N(C)[C@@H](C(C)C)C(=O)O[C@@H]4C)c3nc-2c(C(=O)N[C@@H]2C(=O)N[C@H](C(C)C)C(=O)N3CCC[C@H]3C(=O)N(C)CC(=O)N(C)[C@@H](C(C)C)C(=O)O[C@@H]2C)c(N)c1=O [actinomycin D] (I: T[dV]P[Sar][NMeV] / II: T[dV]P[Sar][NMeV]; ester I:1-I:C, II:1-II:C; linker I:N-II:N via Actinocin(9to1)) | No or only a small change in expression | No change in expression | increased expression | Increased expression | No induction in mda-7 expression | No change in mda-9 expression | 
5 | CCCC(=O)Oc1ccccc1 [phenyl butyrate] | No or only a small change in expression | No change in expression | Decreased expression | No change in expression | No induction in mda-7 expression | Increased expression | 
6 | N.N.[Cl][Pt][Cl] [cis-platinum] | increased expression | No change in expression | Decreased expression | Increased expression | No induction in mda-7 expression | No change in mda-9 expression | 
7 | CC[C@]1(O)C[C@H]2CN(CCc3c([nH]c4ccccc34)[C@@](C(=O)OC)(c3cc4c(cc3OC)N(C=O)[C@H]3[C@@](O)(C(=O)OC)[C@H](OC(C)=O)[C@]5(CC)C=CCN6CC[C@]43[C@@H]65)C2)C1 [vincristine, Vincristine] | No or only a small change in expression | No change in expression | No change in mda-6 expression | No change in expression | increased mda-7 expression | No change in mda-9 expression | 
8 | IFN-α | increased expression | increased expression | Decreased expression | No change in expression | No induction in mda-7 expression | Increased expression | 
9 | TNF-α | No or only a small change in expression | No change in expression | Decreased expression | No change in expression | No induction in mda-7 expression | Increased expression | 
10 | COS(C)(=O)=O [methyl methanesulfonate] |  |  |  |  |  |  | mda-6 expression (mda-6; 2 h exposure to 25 μg/ml): Elevated mda-6 expression
11 | COc1cc([C@@H]2c3cc4c(cc3[C@@H](O[C@@H]3O[C@@H]5CO[C@@H](C)O[C@H]5[C@H](O)[C@H]3O)[C@H]3COC(=O)[C@H]23)OCO4)cc(OC)c1O [VP-16] | No or only a small change in expression | No change in expression | increased expression | No change in expression | No induction in mda-7 expression | Increased expression | 
